Laboratory results reported in patent US20090281047A1, “Compositions And Methods For Immunotherapy” (priority 2008, published 2009).

Tests used:
[1] = test system: Lyme Disease; test: Treatment of Lyme Disease (Example XII); type: in vivo, human; conditions: five individuals; 200 mg in 1 liter alkaline water pH 11 twice daily for three months
Experimental: Five individuals positive for Lyme Disease were administered a solution comprising 1 liter of Alkaline water prepared as described in Example XI and diluted with non-chlorinated drinking water to a pH of 11 mixed with 200 mg of columbianitin extracted from Lomatium Disectum twice daily for three months.

[2] = test system: candadiasis; test: Treatment of candadiasis (Example XIV); type: in vivo, human; conditions: 25 individuals; 200 mg in 1 liter alkaline water pH 11 twice daily for three months
Experimental: (§1) 25 individuals with candadiasis were administered a solution comprising, 1 liter of Alkaline water prepared as described in Example XI and diluted with non-chlorinated drinking water to a pH of 11 mixed with 200 mg of columbianitin extracted from Lomatium Disectum, twice daily for three months.

[3] = test system: Epstein Barr virus; test: Treatment of Epstein Barr (Example XIII); type: in vivo, human; conditions: thirty five individuals; 200 mg in 1 liter alkaline water pH 11 twice daily for three months
Experimental: as §1, with “Thirty five” for “25”, “Epstein Barr virus” for “candadiasis”

[4] = test system: Methicillin Resistant Staphylococcus aureus (MRSA); test: Treatment of MRSA (Example XV); type: in vivo, human; conditions: three individuals; 200 mg in 1 liter alkaline water pH 11 twice daily for three months
Experimental: as §1, with “Three” for “25”, “suffering from MRSA” for “with candadiasis”

[5] = test system: varying malignancies including neuroendocrine cancer, nasal adenocarcinoma, brain stem tumor, thymoma, and histiocytoma; test: Treatment of dogs with varying malignancies (Example X); type: in vivo, dog; conditions: eight dogs; IV five days a week for three weeks, then 1 to 2 grams methacrylate coated para-hydroxyl-benzaldehyde-O-B-D-allopyranoside in food; some also acupuncture/alkaline water
Experimental: Eight dogs weighing between 60 and 80 pounds with varying malignancies including neuroendocrine cancer, nasal adenocarcinoma, brain stem tumor, thymoma, and histiocytoma were treated with 6 cc of the DMSO solution of Example II diluted in 200 cc saline administered intravenously five days a week for three weeks. The dogs were then given 1 to 2 grams of methacrylate coated para-hydroxyl-benzaldehyde-O-B-D-allopyranoside in their food seven days a week until they entered remission. Six of the dogs also received acupuncture and one received acupuncture and alkaline water.

[6] = test system: breast cancer; test: Treatment of breast cancer patients (Example IX); type: in vivo, human
Text: Forty-three of the patients in the study of Example VIII suffered from breast cancer. These forty-three were divided into four groups. One group of 7 was given the glycome solution of Example II; a group of five was given the glycome solution of Example II in combination with chemotherapy; a group of thirteen was given the glycome solution of Example II in combination with chemotherapy and Poly-MVA® (AMARC Enterprises, Inc., Spring Valley, Calif.) (blend of Palladium and alpha-lipoic Acid, Vitamins B1, B2 and B12, Formylmethionine, Acetyl Cystiene, and trace amounts of Molybdinum, Rhodium, and Ruthenium); and the remaining eighteen were given a combination of the glycome solution of Example II and Poly-MVA® (AMARC Enterprises, Inc., Spring Valley, Calif.) without chemotherapy. Patients receiving the glycome solution were given a solution containing three grams of the powder isolated in Example I a day intravenously for five days then six capsules containing a total of 3 g/day of para-hydroxyl-benzaldehyde-O-B-D-allopyranoside formulated according to Example IV and two capsules containing the formulation of Example V orally for two days, repeating for four weeks. They were then given six capsules containing a total of 3 g/day of para-hydroxyl-benzaldehyde-O-B-D-allopyranoside formulated according to Example IV and two capsules containing the formulation of Example V orally per day until they entered remission.

Compound | Lyme disease test at the end of three months [1] | skin infections at the end of three months [2] | vaginal infections at the end of three months [2] | Epstein Barr virus test at the end of three months [3] | clinical outcome at the end of three months [4] | tumor response [5] | breast cancer patients survived for at least two years, overall ([6]; all forty-three breast cancer patients, all four treatment groups) [%] | breast cancer patients survived ([6]; group of eighteen, combination with Poly-MVA without chemotherapy) | breast cancer patients survived ([6]; group of five, combination with chemotherapy) [%]
CC(C)(O)[C@@H]1Cc2c(ccc3ccc(=O)oc23)O1 [columbianitin] | all five individuals tested negative | resolved | remained the same | all thirty-five individuals tested negative | all three individuals improved considerably | – | – | – | –
O=Cc1ccc(O[C@@H]2O[C@H](CO)[C@@H](O)[C@@H](O)[C@H]2O)cc1 [para-hydroxyl-benzaldehyde-O-B-D-allopyranoside] | – | – | – | – | – | significant reduction or elimination of the tumor | 79 | seventy-eight | 100
